Consider 33 compounds from the METLIN SMRT retention time set (Domingo-Almenara et al. 2019).

This data set is described as follows: gradient 5% acetonitrile 3 min, to 50% in 2 min, to 85% in 15 min, held 3 min, 100 µL/min. Conditions: column: Zorbax Extend-C18 2.1 x 50 mm; eluents: water / acetonitrile, 0.1% formic acid. The procedure, abridged:
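Data were gathered over 3 months by HPLC coupled to a quadrupole time-of-flight mass spectrometer, operated in positive and negative ionization mode. Mixtures of ~100 pure standards ran on a Zorbax Extend-C18 column (2.1 × 50 mm, 1.8 μm) at 100 μL/min, with water and acetonitrile each containing 0.1% formic acid and dead and dwell volumes of 40 μL and 900 μL. Retention time was read from adduct peaks picked by computer and checked manually.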
For `CCCn1cnc2ccc(-c3noc(Cc4cccs4)n3)cc21`, the RP-LC retention time stood at 750 s. `CC1CCC2(CC1)NC(=O)N(CC(=O)NCc1ccccc1Cl)C2=O` (stereo not drawn) came in with an RP-LC retention time of 790 s. The same measure for `CN(CC1CCOC1)C(=O)Nc1ccc(C(F)(F)F)cc1` (stereo not drawn): 783 s; for `COc1ccc(N2CCCCn3c2nc2c3c(=O)n(C)c(=O)n2C)cc1`: 759 s.

The compound `Cc1ccc(C)c(CNC(=O)c2ccc(-c3cccnc3)nc2)c1` returned an RP-LC retention time of 722 s. With `CCOC(=O)C1CCN([C@H]2CS(=O)(=O)C[C@@H]2S(=O)(=O)c2ccc(F)cc2)CC1` the figure was 889 s. On to `CCc1ccc(OCc2nc(CCN(C)C(=O)C3CCCC3)no2)cc1`, for which the RP-LC retention time was found to be 1020 s.

Regarding `CNC(=O)[C@@H]1CN(C(=O)c2sc(C)nc2C)C[C@H]1c1n[nH]c(C)n1`, the RP-LC retention time was 559 s. On to `COc1ccc(S(=O)(=O)Cc2nc(-c3ccccc3C)no2)cc1OC`, for which the RP-LC retention time stood at 882 s. The same measure for `Cc1ccc(NC(=O)Cc2c(C)nn(-c3nc(-c4ccc(Cl)cc4)cs3)c2C)c(C)c1`: 1280 s.

The compound `Cc1nnc2n1CCC(NC(=O)c1ccoc1)CC2` (stereo not drawn) yielded an RP-LC retention time of 532 s. `Cc1cc(C)cc(OCCNC(=O)Nc2cc(F)ccc2F)c1`: the RP-LC retention time came out at 992 s.

As to `COc1cc(/C=C2\SC(=O)N(CC(=O)Nc3nccs3)C2=O)cc(OC)c1OC`, the RP-LC retention time turned out to be 777 s. With `CCOC(=O)C1CCN(S(=O)(=O)c2cccc3nsnc23)CC1` the figure was 810 s; with `COc1ccc(-c2noc(C3CCCN3C(=O)c3cc(F)cc(F)c3)n2)cc1` (stereo not drawn), 1020 s; with `Cc1nnc2c(=O)n(CC(=O)NCc3cccc(Cl)c3)c3cccnc3n12`, 700 s. With `Cc1nc2cc3c(cc2n1CC(=O)NCCc1ccc(F)cc1)OCCO3` the figure was 646 s; with `CCn1c(=O)c(C(=O)N2CCN(c3ccccn3)CC2)nc2cc(C)c(C)cc21`, 625 s. On to `CCCn1c(=O)sc2cc(S(=O)(=O)N3CCC(C(=O)N4CCN(C)CC4)CC3)ccc21`, for which the RP-LC retention time is 628 s. The same measure for `COC(=O)c1ccc2c(=O)n(Cc3ccc(F)cc3)c(N3CCSC3)nc2c1`: 1090 s; for `Cc1ccc(NC(=O)N2CC(c3nc(C(C)C)nn3C)C2)cc1`: 689 s. `COc1cccc(-c2nc(C3CCN(S(=O)(=O)c4c(C)cc(C)cc4C)CC3)no2)c1` came in with an RP-LC retention time of 1320 s. `O=C(c1ccc(F)cc1Cl)N1CCN(c2cc(-c3ccc(F)cc3)[nH]n2)CC1`: the RP-LC retention time is 837 s. The same measure for `O=C(c1cccnc1N1CCNC(c2ccccc2)C1)N1CCN(c2ncccn2)CC1` (stereo not drawn): 604 s; for `CCOc1ccc(NC(=O)Cn2c(=O)c(CCC(=O)NCC(C)C)nc3ccccc32)cc1`: 824 s; for `COc1cccc(NC(=O)c2c[nH]c3nc(C)ccc3c2=O)c1`: 791 s. The same measure for `CSc1ccc(CNC(=O)c2cc3ccncc3n2C)cc1`: 637 s; for `COc1ccc(-n2nc3c(N4CCCC(C(=O)NCc5ccccn5)C4)nnc(C)c3c2C)cc1` (stereo not drawn): 591 s; for `Cc1cc(-c2nnc(C3CCC3)o2)c(C)n1CC(=O)Nc1ccc2c(c1)OCCO2`: 836 s. Turning to `CCCCN(CCCNC(=O)C1CCN(S(=O)(=O)N2CCOCC2)CC1)Cc1ccccc1`, the RP-LC retention time came out at 640 s.

For `CCCCC(=O)N1c2nc(-c3ccc(F)cc3)nn2C2(CCCCC2)[C@@H]2CCCC[C@@H]21`, the RP-LC retention time came out at 1210 s. With `CCCn1nnc(NCc2ccc(-c3ccc(Br)cc3Br)o2)n1` the figure was 1230 s; with `CCOc1ccccc1NC(=O)Cn1ncc2c(N3CCN(c4ccccn4)CC3)ncnc21`, 628 s.
